One data set deals with HIV-1 RT (Human immunodeficiency virus type 1 group M subtype B, UniProt P03366). Kind of data set: HIV Reverse Transcriptase Assay: Inhibitor IC50 Determination. The class given is biochemical. The method, then:
HIV Reverse Transcriptase Assay: Inhibitor IC50 Determination
HIV-1 RT assay was carried out in 96-well Millipore MultiScreen MADVNOB50 plates using purified recombinant enzyme and a poly(rA)/oligo(dT)16 template-primer in a total volume of 50 μL. The assay constituents were 50 mM Tris/HCl, 50 mM NaCl, 1 mM EDTA, 6 mM MgCl2, 5 μM dTTP, 0.15 μCi [^3H] dTTP, 5 μg/ml poly (rA) pre annealed to 2.5 μg/ml oligo (dT)16 and a range of inhibitor concentrations in a final concentration of 10% DMSO. Reactions were initiated by adding 4 nM HIV-1 RT and after incubation at 37° C. for 30 min, they were stopped by the addition of 50 μl ice cold 20% TCA and allowed to precipitate at 4° C. for 30 min. The precipitates were collected by applying vacuum to the plate and sequentially washing with 3×200 μl of 10% TCA and 2×200 μl 70% ethanol. Finally, the plates were dried and radioactivity counted in a Packard TopCounter after the addition of 25 μl scintillation fluid per well. IC50's were calculated by plotting % inhibition versus log10 inhibitor concentrations.

Another data set concerns HIV. Kind of data set: Anti-viral Assay (method of Pauwels et al.). The class given is cell-based. The conditions noted are these: Human immunodeficiency virus 1. The method, then:
Anti-viral assays were carried out by the method described by R. E. Pauwels et al. J. Virol. Methods 1988 20(4):309–322.

Where [1] appears, read: purified recombinant enzyme, poly(rA)/oligo(dT)16 template-primer, 37° C. 30 min, read-out: RT inhibition.

Consider 18 compounds from patent publication US7166738B2, “Non-nucleoside reverse transcriptase inhibitors” (Roche Palo Alto LLC, priority 2004, dated 2007).

Structures can show the parent of a compound that is named as a salt. Where two headings read alike, the source gives them in different places.

At HIV-1 RT, `CCC(=O)NS(=O)(=O)c1ccc(NC(=O)Cc2ccc(Br)c(Oc3cc(Cl)cc(C#N)c3)c2F)c(Cl)c1` [Compound I-63, 2-[4-Bromo-3-(3-chloro-5-cyano-phenoxy)-2-fluoro-phenyl]-N-(2-chloro-4-propionylsulfamoyl-phenyl)-acetamide; sodium salt] yielded an IC50 of 5.8 nM.
As usually defined, the EC50 is the concentration at which the effect is half-maximal. A higher EC50 goes with a need for much substance. What is called melting point is the temperature, or range, at which the solid turns liquid. As to `Cc1ccc(CC(=O)Nc2ccc(S(N)(=O)=O)cc2Cl)c(F)c1Oc1cc(C#N)cc(C(F)F)c1` [Compound I-84, N-(2-Chloro-4-sulfamoyl-phenyl)-2-[3-(3-cyano-5-difluoromethyl-phenoxy)-2-fluoro-4-methyl-phenyl]-acetamide], the melting point was 218 to 218.7 °C. Also, the IC50 on HIV-1 RT (setting [1]) is 14 nM. The same compound had a half-maximal effective concentration (EC50) with HIV of 0.4 nM.
On to `CCc1ccc(CC(=O)Nc2ccc(S(N)(=O)=O)cc2C)c(F)c1Oc1cc(C#N)cc(C(F)F)c1` [Compound I-180, 2-[3-(3-Cyano-5-difluoromethyl-phenoxy)-4-ethyl-2-fluoro-phenyl]-N-(2-methyl-4-sulfamoyl-phenyl)-acetamide], for which the melting point fell in the range of 237.6 to 238.4 °C. In addition, on HIV-1 RT (setting [1]), the IC50 is 9.1 nM.
`CCc1ccc(CC(=O)Nc2ccc(S(N)(=O)=O)cc2Cl)c(F)c1Oc1cc(C#N)cc(C(F)F)c1` [Compound I-179, N-(2-Chloro-4-sulfamoyl-phenyl)-2-[3-(3-cyano-5-difluoromethyl-phenoxy)-4-ethyl-2-fluoro-phenyl]-acetamide] showed a melting point of 239.6 to 240.7 °C. The IC50 on HIV-1 RT (setting [1]) amounted to 7.4 nM. Further, in the data set on HIV, the EC50 was determined as 0.4 nM.
For the compound `CC(C)[C@H](N)C(=O)NS(=O)(=O)c1ccc(NC(=O)Cc2ccc(Cl)c(Oc3cc(Cl)cc(C#N)c3)c2F)c(Cl)c1.[Na]` [Compound I-127, N-[4-((S)-2-Amino-3-methyl-butyrylsulfamoyl)-2-chloro-phenyl]-2-[4-chloro-3-(3-chloro-5-cyano-phenoxy)-2-fluoro-phenyl]-acetamide; sodium salt], the melting point lay within 219.4 to 220.2 °C. At HIV-1 RT, this compound returned an IC50 of 5.9 nM.
`CCCC(=O)NS(=O)(=O)c1ccc(NC(=O)Cc2ccc(Cl)c(Oc3cc(Cl)cc(C#N)c3)c2F)c(Cl)c1.[Na]` [Compound I-138, N-(4-Butyrylsulfamoyl-2-chloro-phenyl)-2-[4-chloro-3-(3-chloro-5-cyano-phenoxy)-2-fluoro-phenyl]-acetamide; sodium salt] came in with a melting point of 157.2 to 157.9 °C. Also, the IC50 against HIV-1 RT came to 4.5 nM.
For `CCc1ccc(CC(=O)Nc2ccc(S(N)(=O)=O)cc2Cl)cc1Oc1cc(C#N)cc(C(F)F)c1` [Compound I-140, N-(2-Chloro-4-sulfamoyl-phenyl)-2-[3-(3-cyano-5-difluoromethyl-phenoxy)-4-ethyl-phenyl]-acetamide], the melting point was 191.8 to 192.5 °C. Besides, the IC50 on HIV-1 RT (setting [1]) stood at 21 nM. In the data set on HIV, this compound gave an EC50 of 0.4 nM.
For the compound `Cc1cc(S(N)(=O)=O)ccc1NC(=O)Cc1ccc(Br)c(Oc2cc(C#N)cc(C(F)F)c2)c1F` [Compound I-169, 2-[4-Bromo-3-(3-cyano-5-difluoromethyl-phenoxy)-2-fluoro-phenyl]-N-(2-methyl-4-sulfamoyl-phenyl)-acetamide], the melting point was in the range of 223.9 to 225 °C. Besides, the IC50 at HIV-1 RT (setting [1]) was determined as 27 nM. In the data set on HIV, this compound showed a half-maximal effective concentration (EC50) of 0.4 nM.
For the compound `N#Cc1cc(Oc2c(Br)ccc(CC(=O)Nc3ccc(S(N)(=O)=O)cc3Cl)c2F)cc(C(F)F)c1` [Compound I-165, 2-[4-Bromo-3-(3-cyano-5-difluoromethyl-phenoxy)-2-fluoro-phenyl]-N-(2-chloro-4-sulfamoyl-phenyl)-acetamide], the melting point was 205.4 to 207.7 °C. Moreover, the IC50 on HIV-1 RT (setting [1]) was found to be 21 nM. The same compound gave a concentration for a half-maximal effect (EC50) in the data set on HIV of 0.4 nM.
Take `N#Cc1cc(Cl)cc(Oc2c(Br)ccc(CC(=O)Nc3ccc(S(N)(=O)=O)cc3Cl)c2F)c1` [Compound I-109, 2-[4-Bromo-3-(3-chloro-5-cyano-phenoxy)-2-fluoro-phenyl]-N-(2-chloro-4-sulfamoyl-phenyl)-acetamide]: the melting point was in the range of 165 to 166.6 °C. The compound also yielded an IC50 against HIV-1 RT of 13.6 nM. The same compound returned an EC50 in the data set on HIV of 1.3 nM.
In turn, `Cc1ccc(CC(=O)Nc2ccc(S(N)(=O)=O)cc2Cl)c(F)c1Oc1cc(Cl)cc(C#N)c1` [Compound I-83, 2-[3-(3-Chloro-5-cyano-phenoxy)-2-fluoro-4-methyl-phenyl]-N-(2-chloro-4-sulfamoyl-phenyl)-acetamide] came in with a melting point of 228.9 to 230.6 °C. In addition, the IC50 at HIV-1 RT (setting [1]) is 8.1 nM. This compound yielded an EC50 in the data set on HIV of 0.9 nM.
With `Cc1cc(S(=O)(=O)CC(=O)O)ccc1NC(=O)Cc1ccc(C)c(Oc2cc(Cl)cc(C#N)c2)c1` [Compound I-152, (4-{2-[3-(3-Chloro-5-cyano-phenoxy)-4-methyl-phenyl]-acetylamino}-3-methyl-benzenesulfonyl)-acetic acid], the melting point is 180.5 to 181.4 °C.
In the case of `COc1ccc(CC(=O)Nc2ccccc2Cl)cc1Oc1cc(C#N)ccc1Cl` [Compound I-62, 2-[3-(2-Chloro-5-cyano-phenoxy)-4-methoxy-phenyl]-N-(2-chloro-phenyl)-acetamide], the melting point fell in the range of 194 to 197.8 °C.
`COc1cc(CC(=O)Nc2ccc(S(N)(=O)=O)cc2)cc(Oc2cc(C#N)ccc2Cl)c1` [Compound I-102, 2-[3-(2-Chloro-5-cyano-phenoxy)-5-methoxy-phenyl]-N-(4-sulfamoyl-phenyl)-acetamide]: the melting point is 180.5 to 181.3 °C.
In turn, `Cc1cc(S(N)(=O)=O)ccc1NC(=O)Cc1ccc(Cl)c(Oc2cc(C#N)cc(C(C)(F)F)c2)c1F` [Compound I-96, 2-{4-Chloro-3-[3-cyano-5-(1,1-difluoro-ethyl)-phenoxy]-2-fluoro-phenyl}-N-(2-methyl-4-sulfamoyl-phenyl)-acetamide] had a melting point of 198.5 to 201 °C.
As for `N#Cc1cc(Cl)cc(Oc2c(Cl)ccc(CC(=O)Nc3ccc(S(=O)(=O)NC(=O)CCC(=O)O)cc3Cl)c2F)c1` [Compound I-188, 4-(3-Chloro-4-{2-[4-chloro-3-(3-chloro-5-cyano-phenoxy)-2-fluoro-phenyl]-acetylamino}-benzenesulfonylamino)-4-oxo-butyric acid], the melting point was in the range of 143.4 to 144 °C.
The compound `N#Cc1cc(Oc2cc(CC(=O)Nc3ccc(S(N)(=O)=O)cc3Cl)ccc2Cl)cc(C(F)(F)F)c1` [Compound I-90, 2-[4-Chloro-3-(3-cyano-5-trifluoromethyl-phenoxy)-phenyl]-N-(2-chloro-4-sulfamoyl-phenyl)-acetamide] registered a melting point of 198 to 202 °C.
The compound `Cc1cc(S(N)(=O)=O)ccc1NC(=O)Cc1cc(C)c(C)c(Oc2cc(Cl)cc(C#N)c2)c1` [Compound I-183, 2-[3-(3-Chloro-5-cyano-phenoxy)-4,5-dimethyl-phenyl]-N-(2-methyl-4-sulfamoyl-phenyl)-acetamide] had a melting point of 230.8 to 233.4 °C.
